# Data: patent publication US9737542B2, “Pyrrolotriazine kinase inhibitors” (BRISTOL-MYERS SQUIBB COMPANY, priority 2013, dated 2017)
# Molecular target: GST-Xa-hAAK1 (Homo sapiens (Human), UniProt Q2M2I8)
# Assay: AAK1 Kinase Assay
# Assay type: biochemical
# Settings: ATP 22 μM; 3 hours at room temperature
# Procedure: The assays were performed in U-bottom 384-well plates. […] The reactions were initiated by the combination of bacterially expressed, GST-Xa-hAAK1 with substrates and test compounds. The reactions were incubated at room temperature for 3 hours and terminated by adding 60 μl of 35 mM EDTA buffer to each sample. The reactions were analyzed on the Caliper LabChip 3000 (Caliper, Hopkinton, Mass.) by electrophoretic separation of the fluorescent substrate and phosphorylated product. Inhibition data were calculated by comparison to EDTA quenched control reactions for 100% inhibition and vehicle-only reactions for 0% inhibition. […] Dose response curves were generated to determine the concentration required inhibiting 50% of kinase activity (IC50). Compounds were dissolved at 10 mM in dimethylsulfoxide (DMSO) and evaluated at eleven concentrations. IC50 values were derived by non-linear regression analysis.
# Chain of GST-Xa-hAAK1 (Q2M2I8 whole entry): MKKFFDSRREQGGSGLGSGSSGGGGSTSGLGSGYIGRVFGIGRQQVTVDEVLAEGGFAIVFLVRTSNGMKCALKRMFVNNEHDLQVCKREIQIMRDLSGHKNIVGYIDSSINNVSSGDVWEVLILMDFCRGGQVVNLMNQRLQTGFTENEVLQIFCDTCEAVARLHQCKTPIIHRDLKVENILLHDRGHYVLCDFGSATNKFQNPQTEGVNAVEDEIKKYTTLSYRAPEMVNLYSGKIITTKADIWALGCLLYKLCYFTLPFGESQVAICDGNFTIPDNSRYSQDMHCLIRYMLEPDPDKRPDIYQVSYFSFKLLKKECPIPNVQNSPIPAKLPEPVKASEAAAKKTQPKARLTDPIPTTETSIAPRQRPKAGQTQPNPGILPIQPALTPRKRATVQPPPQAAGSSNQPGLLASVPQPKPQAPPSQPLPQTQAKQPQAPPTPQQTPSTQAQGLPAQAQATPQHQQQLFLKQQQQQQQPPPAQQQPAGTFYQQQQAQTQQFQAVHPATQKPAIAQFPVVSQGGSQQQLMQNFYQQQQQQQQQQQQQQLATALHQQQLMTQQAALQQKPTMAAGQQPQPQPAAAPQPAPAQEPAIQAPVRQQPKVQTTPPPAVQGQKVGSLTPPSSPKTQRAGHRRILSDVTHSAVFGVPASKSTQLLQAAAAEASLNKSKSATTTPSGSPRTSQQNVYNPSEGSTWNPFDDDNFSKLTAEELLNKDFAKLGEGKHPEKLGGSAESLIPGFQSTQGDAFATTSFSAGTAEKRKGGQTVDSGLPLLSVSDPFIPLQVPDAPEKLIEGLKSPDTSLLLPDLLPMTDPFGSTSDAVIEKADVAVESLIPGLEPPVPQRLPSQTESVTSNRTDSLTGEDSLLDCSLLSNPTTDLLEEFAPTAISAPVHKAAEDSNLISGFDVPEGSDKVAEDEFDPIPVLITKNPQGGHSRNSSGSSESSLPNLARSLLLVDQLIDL
row,IC50 [nM],SMILES
1,7.3,"CC(C)n1nnc(-c2cccc(Nc3ncnn4ccc(CN5CCC(N)CC5)c34)c2)n1 [Example 8, 5-((4-aminopiperidin-1-yl)methyl)-N-(3-(2-isopropyl-2H-tetrazol-5-yl)phenyl)pyrrolo[2,1-f][1,2,4]triazin-4-amine]"
2,446,"Cn1ccc(-c2cccc(Nc3ncnn4ccc(CN5CCC(N)CC5)c34)c2)n1 [Example 12, 5-((4-aminopiperidin-1-yl)methyl)-N-(3-(1-methyl-1H-pyrazol-3-yl)phenyl)pyrrolo[2,1-f][1,2,4]triazin-4-amine]"
3,2120,"Cc1nnc(-c2cccc(Nc3ncnn4ccc(CN5CC(N)C5)c34)c2)s1 [Example 19, 5-((3-aminoazetidin-1-yl)methyl)-N-(3-(5-methyl-1,3,4-thiadiazol-2-yl)phenyl)pyrrolo[2,1-f][1,2,4]triazin-4-amine]"
4,14,"NC1CCN(Cc2ccn3ncnc(Nc4cccc(-c5noc(C6CCCCC6)n5)c4)c23)CC1 [Example 22, 5-((4-aminopiperidin-1-yl)methyl)-N-(3-(5-cyclohexyl-1,2,4-oxadiazol-3-yl)phenyl)pyrrolo[2,1-f][1,2,4]triazin-4-amine]"

# Same assay, conditions: ATP 22 μM; 3 hours at room temperature; listed as IC50 ranges
row,SMILES,IC50 [nM]
1,"C=Cc1cccc(Nc2ncnn3ccc(CN4CCC(N)CC4)c23)c1 [Example 4, 5-((4-aminopiperidin-1-yl)methyl)-N-(3-vinylphenyl)pyrrolo[2,1-f][1,2,4]triazin-4-amine]",100 to 1000
2,"NC1CCN(Cc2ccn3ncnc(Nc4cc(O)cc(-c5ncco5)c4)c23)CC1 [Example 7, 3-((5-((4-aminopiperidin-1-yl)methyl)pyrrolo[2,1-f][1,2,4]triazin-4-yl)amino)-5-(oxazol-2-yl)phenol]",100 to 1000
3,"CCc1nnc(-c2cccc(Nc3ncnn4ccc(CN5CCC(N)CC5)c34)c2)[nH]1 [Example 15, 5-((4-aminopiperidin-1-yl)methyl)-N-(3-(5-ethyl-4H-1,2,4-triazol-3-yl)phenyl)pyrrolo[2,1-f][1,2,4]triazin-4-amine]",10 to 100
4,"CNC1CCN(Cc2ccn3ncnc(Nc4cccc(-c5nnc(C)s5)c4)c23)CC1 [Example 18, N-(3-(5-methyl-1,3,4-thiadiazol-2-yl)phenyl)-5-((4-(methylamino)piperidin-1-yl)methyl)pyrrolo[2,1-f][1,2,4]triazin-4-amine]",100 to 1000
5,"Cc1nnc(-c2cccc(Nc3ncnn4ccc(CN5CC6CNCC6C5)c34)c2)s1 (stereo not shown) [Example 20, 5-((hexahydropyrrolo[3,4-c]pyrrol-2(1H)-yl)methyl)-N-(3-(5-methyl-1,3,4-thiadiazol-2-yl)phenyl)pyrrolo[2,1-f][1,2,4]triazin-4-amine]",1000 to 5000
6,"CCCc1nnc(-c2cccc(Nc3ncnn4ccc(CN5CCC(N)CC5)c34)c2)s1 [Example 21, 5-((4-aminopiperidin-1-yl)methyl)-N-(3-(5-propyl-1,3,4-thiadiazol-2-yl)phenyl)pyrrolo[2,1-f][1,2,4]triazin-4-amine]",10 to 100
7,"NC1CCN(Cc2ccn3ncnc(Nc4cccc(-c5nnc(C6CC6)s5)c4)c23)CC1 [Example 23, 5-((4-aminopiperidin-1-yl)methyl)-N-(3-(5-cyclopropyl-1,3,4-thiadiazol-2-yl)phenyl)pyrrolo[2,1-f][1,2,4]triazin-4-amine]",100 to 1000
8,"CNC1CCN(Cc2ccn3ncnc(Nc4cccc(-c5nnc(C6CC6)s5)c4)c23)CC1 [Example 24, N-(3-(5-cyclopropyl-1,3,4-thiadiazol-2-yl)phenyl)-5-((4-(methylamino)piperidin-1-yl)methyl)pyrrolo[2,1-f][1,2,4]triazin-4-amine]",10 to 100
9,"NC1CN(Cc2ccn3ncnc(Nc4cccc(-c5nnc(C6CC6)s5)c4)c23)C1 [Example 25, 5-((3-aminoazetidin-1-yl)methyl)-N-(3-(5-cyclopropyl-1,3,4-thiadiazol-2-yl)phenyl)pyrrolo[2,1-f][1,2,4]triazin-4-amine]",100 to 1000
10,"c1cc(Nc2ncnn3ccc(CN4CC5CNCC5C4)c23)cc(-c2nnc(C3CC3)s2)c1 (stereo not shown) [Example 26, N-(3-(5-cyclopropyl-1,3,4-thiadiazol-2-yl)phenyl)-5-((hexahydropyrrolo[3,4-c]pyrrol-2(1H)-yl)methyl)pyrrolo[2,1-f][1,2,4]triazin-4-amine]",100 to 1000
11,"CNC1CCN(Cc2ccn3ncnc(Nc4cccc(-c5nnc(C(C)C)s5)c4)c23)CC1 [Example 27, N-(3-(5-isopropyl-1,3,4-thiadiazol-2-yl)phenyl)-5-((4-(methylamino)piperidin-1-yl)methyl)pyrrolo[2,1-f][1,2,4]triazin-4-amine]",100 to 1000
12,"CC(C)c1nnc(-c2cccc(Nc3ncnn4ccc(CN5CC(N)C5)c34)c2)s1 [Example 28, 5-((3-aminoazetidin-1-yl)methyl)-N-(3-(5-isopropyl-1,3,4-thiadiazol-2-yl)phenyl)pyrrolo[2,1-f][1,2,4]triazin-4-amine]",100 to 1000
13,"CC(C)c1nnc(-c2cccc(Nc3ncnn4ccc(CN5CC6CNCC6C5)c34)c2)s1 (stereo not shown) [Example 29, 5-((hexahydropyrrolo[3,4-c]pyrrol-2(1H)-yl)methyl)-N-(3-(5-isopropyl-1,3,4-thiadiazol-2-yl)phenyl)pyrrolo[2,1-f][1,2,4]triazin-4-amine]",100 to 1000
14,"CNC1CCN(Cc2ccn3ncnc(Nc4cccc(-c5nnc(C(C)C)s5)c4)c23)C1 (stereo not shown) [Example 30, N-(3-(5-isopropyl-1,3,4-thiadiazol-2-yl)phenyl)-5-((3-(methylamino)pyrrolidin-1-yl)methyl)pyrrolo[2,1-f][1,2,4]triazin-4-amine]",100 to 1000
15,"CC(C)c1nnc(-c2cccc(Nc3ncnn4ccc(CN5CCC(CN)C5)c34)c2)s1 (stereo not shown) [Example 31, 5-((3-(aminomethyl)pyrrolidin-1-yl)methyl)-N-(3-(5-isopropyl-1,3,4-thiadiazol-2-yl)phenyl)pyrrolo[2,1-f][1,2,4]triazin-4-amine]",100 to 1000
16,"CC(C)c1nnc(-c2cccc(Nc3ncnn4ccc(CN5CCC(N)C5)c34)c2)s1 (stereo not shown) [Example 32, 5-((3-aminopyrrolidin-1-yl)methyl)-N-(3-(5-isopropyl-1,3,4-thiadiazol-2-yl)phenyl)pyrrolo[2,1-f][1,2,4]triazin-4-amine]",100 to 1000
17,"CC(C)CNC(=O)c1cccc(Nc2ncnn3ccc(CN4CCC(N)CC4)c23)c1 [Example 33, 3-((5-((4-aminopiperidin-1-yl)methyl)pyrrolo[2,1-f][1,2,4]triazin-4-yl)amino)-N-isobutylbenzamide]",10 to 100
18,"CC(C)n1nnc(-c2cccc(Nc3ncnn4ccc(CN5CCNCC5)c34)c2)n1 [Example 34, N-(3-(2-isopropyl-2H-tetrazol-5-yl)phenyl)-5-(piperazin-1-ylmethyl)pyrrolo[2,1-f][1,2,4]triazin-4-amine]",10 to 100

# The remaining lines, values ahead:
row,IC50 [nM],SMILES
1,100 to 1000,"NC1CCN(Cc2ccn3ncnc(Nc4cccc(-c5cnco5)c4)c23)CC1 [Example 1, 5-((4-aminopiperidin-1-yl)methyl)-N-(3-(oxazol-5-yl)phenyl)pyrrolo[2,1-f][1,2,4]triazin-4-amine]"
2,10 to 100,"CC(C)c1nc(-c2cccc(Nc3ncnn4ccc(CN5CCC(N)CC5)c34)c2)no1 [Example 2, 5-((4-aminopiperidin-1-yl)methyl)-N-(3-(5-isopropyl-1,2,4-oxadiazol-3-yl)phenyl)pyrrolo[2,1-f][1,2,4]triazin-4-amine]"
3,10 to 100,"CC(C)c1nc(-c2ccc(O)c(Nc3ncnn4ccc(CN5CCC(N)CC5)c34)c2)no1 [Example 3, 2-((5-((4-aminopiperidin-1-yl)methyl)pyrrolo[2,1-f][1,2,4]triazin-4-yl)amino)-4-(5-isopropyl-1,2,4-oxadiazol-3-yl)phenol]"
4,10 to 100,"CC(C)(C)c1nc(-c2cccc(Nc3ncnn4ccc(CN5CCC(N)CC5)c34)c2)no1 [Example 5, 5-((4-aminopiperidin-1-yl)methyl)-N-(3-(5-(tert-butyl)-1,2,4-oxadiazol-3-yl)phenyl)pyrrolo[2,1-f][1,2,4]triazin-4-amine]"
5,10 to 100,"CCC(C)(C)c1nc(-c2cccc(Nc3ncnn4ccc(CN5CCC(N)CC5)c34)c2)no1 [Example 6, 5-((4-aminopiperidin-1-yl)methyl)-N-(3-(5-(tert-pentyl)-1,2,4-oxadiazol-3-yl)phenyl)pyrrolo[2,1-f][1,2,4]triazin-4-amine]"
6,10 to 100,"CC(C)c1nnc(-c2cccc(Nc3ncnn4ccc(CN5CCC(N)CC5)c34)c2)s1 [Example 9, 5-((4-aminopiperidin-1-yl)methyl)-N-(3-(5-isopropyl-1,3,4-thiadiazol-2-yl)phenyl)pyrrolo[2,1-f][1,2,4]triazin-4-amine]"
7,10 to 100,"CC(C)(CO)c1nc(-c2cccc(Nc3ncnn4ccc(CN5CCC(N)CC5)c34)c2)no1 [Example 10, 2-(3-(3-((5-((4-aminopiperidin-1-yl)methyl)pyrrolo[2,1-f][1,2,4]triazin-4-yl)amino)phenyl)-1,2,4-oxadiazol-5-yl)-2-methylpropan-1-ol]"
8,100 to 1000,"NC1CCN(Cc2ccn3ncnc(Nc4cccc(-c5noc(CCl)n5)c4)c23)CC1 [Example 11, 5-((4-aminopiperidin-1-yl)methyl)-N-(3-(5-(chloromethyl)-1,2,4-oxadiazol-3-yl)phenyl)pyrrolo[2,1-f][1,2,4]triazin-4-amine]"
9,100 to 1000,"Cc1nc(-c2cccc(Nc3ncnn4ccc(CN5CCC(N)CC5)c34)c2)no1 [Example 13, 5-((4-aminopiperidin-1-yl)methyl)-N-(3-(5-methyl-1,2,4-oxadiazol-3-yl)phenyl)pyrrolo[2,1-f][1,2,4]triazin-4-amine]"
10,100 to 1000,"NC1CCN(Cc2ccn3ncnc(Nc4cccc(-c5csnn5)c4)c23)CC1 [Example 14, N-(3-(1,2,3-thiadiazol-4-yl)phenyl)-5-((4-aminopiperidin-1-yl)methyl)pyrrolo[2,1-f][1,2,4]triazin-4-amine]"
11,100 to 1000,"NC1CCN(Cc2ccn3ncnc(Nc4cccc(-c5nc(-c6ccccc6)no5)c4)c23)CC1 [Example 16, 5-((4-aminopiperidin-1-yl)methyl)-N-(3-(3-phenyl-1,2,4-oxadiazol-5-yl)phenyl)pyrrolo[2,1-f][1,2,4]triazin-4-amine]"
12,100 to 1000,"Cc1nnc(-c2cccc(Nc3ncnn4ccc(CN5CCC(N)CC5)c34)c2)s1 [Example 17, 5-((4-aminopiperidin-1-yl)methyl)-N-(3-(5-methyl-1,3,4-thiadiazol-2-yl)phenyl)pyrrolo[2,1-f][1,2,4]triazin-4-amine]"
